Measured values taken from PubChem BioAssay (NCI).
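Cells were grown in 96-well plates and exposed to each compound for 48 hours at five concentrations; endpoints were interpolated linearly between bracketing concentrations, or set to the highest concentration if not reached. Here, GI50 denotes the concentration required for 50% inhibition of growth. TGI: concentration producing complete growth inhibition.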

Assays:
Assay in all cases: DTP human tumour cell line panel, 48 h
786-0 renal = system: 786-0 renal
HCC-2998 colon = system: HCC-2998 colon
HT29 colon = system: HT29 colon
M14 melanoma = system: M14 melanoma
NCI-H226 lung = system: NCI-H226 lung
NCI/ADR-RES ovarian = system: NCI/ADR-RES ovarian
OVCAR-5 ovarian = system: OVCAR-5 ovarian
SK-MEL-2 melanoma = system: SK-MEL-2 melanoma
SK-MEL-28 melanoma = system: SK-MEL-28 melanoma
SW-620 colon = system: SW-620 colon

| Structure (SMILES) | GI50 (786-0 renal) [µM] | TGI (786-0 renal) [µM] | GI50 (HCC-2998 colon) [µM] | TGI (HCC-2998 colon) [µM] | GI50 (HT29 colon) [µM] | TGI (HT29 colon) [µM] | GI50 (M14 melanoma) [µM] | TGI (M14 melanoma) [µM] | GI50 (NCI-H226 lung) [µM] | TGI (NCI-H226 lung) [µM] | GI50 (NCI/ADR-RES ovarian) [µM] | TGI (NCI/ADR-RES ovarian) [µM] | GI50 (OVCAR-5 ovarian) [µM] | TGI (OVCAR-5 ovarian) [µM] | GI50 (SK-MEL-2 melanoma) [µM] | TGI (SK-MEL-2 melanoma) [µM] | GI50 (SK-MEL-28 melanoma) [µM] | TGI (SK-MEL-28 melanoma) [µM] | GI50 (SW-620 colon) [µM] | TGI (SW-620 colon) [µM] |
| --- | --- | --- | --- | --- | --- | --- | --- | --- | --- | --- | --- | --- | --- | --- | --- | --- | --- | --- | --- | --- |
| O=C(NCC(F)(F)F)Nc1cccc(-c2cnc3cc(-c4ccc(F)cc4)ccn23)c1 | 2.26 | > 100 | 1.95 | 49.4 | 0.314 | 1.23 | 1.15 | > 100 | 3.99 | > 100 | 1.82 | > 68 | 8.33 | > 86.3 | 0.477 | 12 | 9.16 | > 83 | 0.515 | 36.8 |
| C#CC1=CC(=O)C(OC)=CC1=O | – | 20.1 | – | 81.5 | – | 62 | – | 39.1 | – | 42 | – | > 100 | – | > 100 | – | 33.7 | – | > 100 | – | 40 |
| O=C1CSC(c2ccccc2Cl)N1c1nnc(Cn2cnnc2)o1 (stereo not given) | 13.8 | 33.4 | 12.3 | 27.2 | 3.35 | 13.9 | 6.06 | 24.7 | 17.3 | 36.1 | 6.64 | 83.4 | 20.4 | 44.3 | 22.6 | 94.8 | 12.3 | 45.8 | 4.73 | 27.5 |
| C=C1C(O)C2CC(C)(CO)C(=O)C2=C(CC(C)C)C12CC2 (stereo not given) | > 100 | > 100 | > 100 | > 100 | > 100 | > 100 | 92.7 | > 100 | > 100 | > 100 | > 100 | > 100 | > 100 | > 100 | > 100 | > 100 | > 100 | > 100 | 62.3 | > 100 |
| COc1ccc(-c2cncn2-c2cc(OC)c(OC)c(OC)c2)cc1 | 0.115 | 43.7 | 0.0779 | 1.37 | 0.153 | > 100 | 0.179 | 12.7 | 1.97 | 82.6 | 0.0652 | 0.915 | 0.318 | > 100 | 0.045 | > 100 | 11.3 | > 100 | 0.0585 | > 100 |
| COC(=O)c1c(-c2cccs2)oc(-c2cccs2)c1C(=O)OC | 18 | 49.8 | 36.2 | > 82.8 | 60.2 | > 100 | 20.3 | 55.2 | 38.2 | 98.3 | 31.6 | > 94.5 | > 95 | > 100 | 39.5 | > 100 | 56.7 | > 100 | 31 | > 100 |
